In PMC10821532, “Sex and Cross-Sex Testosterone Treatment Alters Gamma-Hydroxybutyrate Acid Toxicokinetics and Toxicodynamics in Rats” (Pharmaceutics, 2024):

Tested on: Sprague Dawley (SD) rats
Experiment: Sedative/hypnotic effect (sleep time, RRR-LRR) after i.v. GHB
Format: in vivo
Conditions: 1500 mg/kg GHB iv
Protocol: Jugular vein cannulas were surgically implanted under anesthesia with ketamine/xylazine. Cannulas were flushed daily with heparinized saline to maintain patency. Rats were allowed a minimum of 72 h for recovery from surgery before the experiments were conducted. GHB was administered intravenously as a 1000 mg/kg i.v. bolus or 1500 mg/kg iv bolus with or without AR-C155858 (1 mg/kg i.v. bolus) via a jugular vein cannula to the animals at 13 weeks of age (N = 5–7 per group). Rats were dosed in metabolic cages with ad libitum access to water to allow for the concurrent collection of blood and urine samples for up to 8 h. GHB was administered as a 300 mg/mL solution in sterile water, and the time of administration was considered as time 0. AR-C155858 was administered as a 1 mg/mL solution in 10% cyclodextrin in normal saline 5 min after GHB administration. Blood samples (200 μL) were taken from the jugular vein cannula at different time points: 5, 10, 20, 30, 60, 90, 120, 180, 240, 270, 300, and 330 min for 1000 mg/kg and 10, 30, 60, 90, 120, 180, 240, 270, 300, 330, 360, and 390/480 min for 1500 mg/kg bolus with or without AR-C155858. Plasma samples were separated by centrifugation and stored at −20 °C. Urine samples were collected at 120, 240, and 360 min for 1000 mg/kg and 120, 240, and 390/480 min for 1500 mg/kg bolus with or without AR-C155858 post-dose; the total urine volume was determined, and the samples were stored at −20 °C.
The sedative/hypnotic effects (sleep time) were determined, as described in a previous publication. The sedative/hypnotic duration effect of GHB was determined as the difference between the offset of the sedative/hypnotic effect (RRR) and the onset of the sedative/hypnotic effect (LRR).

O=C(O)CCCO [GHB, Γ-hydroxybutyric acid]
Sleep time (RRR–LRR), average (testosterone-treated CST rats): 422.5 min
Sleep time, two individual rats (two of the testosterone-treated CST rats): ~ 600 min
